# Measurements: ChEMBL document CHEMBL1201862, “PubChem BioAssay data set” (2004)
#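 Results reflect a 48-hour exposure of cells in 96-well plates to compound at five concentrations. GI50 = concentration required for 50% inhibition of growth.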 The source made the active and inactive calls. No stated cut-off is given here; in the data, active = GI50 up to about 1.1 µM and inactive = higher.
# How the values were obtained:
# Assay in all cases: NCI-60 cell line screen, 48 h
# CAKI-1 = system: CAKI-1
# DMS-114 = system: DMS-114
# EKVX = system: EKVX
# HCC 2998 = system: HCC 2998
# HCT-116 = system: HCT-116
# HL-60 = system: HL-60
# KM12 = system: KM12
# LOX IMVI = system: LOX IMVI
# MOLT-4 = system: MOLT-4
# Malme-3M = system: Malme-3M
# NCI/ADR-RES = system: NCI/ADR-RES
# OVCAR-5 = system: OVCAR-5
# SK-MEL-2 = system: SK-MEL-2
# SK-MEL-5 = system: SK-MEL-5
# SK-OV-3 = system: SK-OV-3
# SNB-75 = system: SNB-75
# SW-620 = system: SW-620
# T47D = system: T47D
# LXFL 529 = system: LXFL 529
# XF498 = system: XF498
Structure (SMILES),GI50 (CAKI-1),GI50 (DMS-114),GI50 (EKVX),GI50 (HCC 2998),GI50 (HCT-116),GI50 (HL-60),GI50 (KM12),GI50 (LOX IMVI),GI50 (MOLT-4),GI50 (Malme-3M),GI50 (NCI/ADR-RES),GI50 (OVCAR-5),GI50 (SK-MEL-2),GI50 (SK-MEL-5),GI50 (SK-OV-3),GI50 (SNB-75),GI50 (SW-620),GI50 (T47D),GI50 (LXFL 529),GI50 (XF498)
CN(C)CCNC(=O)c1cccc2ccc(-c3ccc(O)cc3)nc12,1.19 µM (inactive),2.08 µM (inactive),8.36 µM (inactive),5.86 µM (inactive),0.698 µM (active),0.847 µM (active),4.54 µM (inactive),0.743 µM (active),0.238 µM (active),1.05 µM (active),5.11 µM (inactive),1.71 µM (inactive),4.5 µM (inactive),1.25 µM (inactive),3.01 µM (inactive),2.74 µM (inactive),1.02 µM (active),3.09 µM (inactive),–,–
CCn1cnc2c(=S)nc(N)[nH]c21,–,> 100 µM (inactive),> 100 µM (inactive),> 100 µM (inactive),> 100 µM (inactive),> 100 µM (inactive),> 100 µM (inactive),> 100 µM (inactive),> 100 µM (inactive),> 100 µM (inactive),–,–,–,–,> 100 µM (inactive),> 100 µM (inactive),> 100 µM (inactive),–,> 100 µM (inactive),–
CC1(Cl)CC2OC3(Br)C=CC(C)(O)C2(CC1Br)C3(C)C (configuration not stated),> 100 µM (inactive),> 100 µM (inactive),> 100 µM (inactive),> 100 µM (inactive),> 100 µM (inactive),51.1 µM (inactive),> 100 µM (inactive),> 100 µM (inactive),> 100 µM (inactive),> 100 µM (inactive),–,> 100 µM (inactive),> 100 µM (inactive),> 100 µM (inactive),> 100 µM (inactive),82.6 µM (inactive),> 100 µM (inactive),–,> 100 µM (inactive),–
COc1ccc(C2=C[C@]3(O)CCCN3C[C@@H]2c2ccc(OC)c(OC)c2)cc1,< 0.0001 µM (active),–,< 0.0001 µM (active),> 0.01 µM (active),< 0.0001 µM (active),< 0.0001 µM (active),< 0.0001 µM (active),< 0.0001 µM (active),< 0.0001 µM (active),< 0.0001 µM (active),–,< 0.0001 µM (active),< 0.0001 µM (active),< 0.0001 µM (active),< 0.0001 µM (active),< 0.0001 µM (active),< 0.0001 µM (active),–,< 0.0001 µM (active),< 0.0001 µM (active)
Cc1c(CCCl)c(Cl)n2c(nc3ccccc32)c1C#N,0.597 µM (active),1.13 µM (inactive),3.21 µM (inactive),1.56 µM (inactive),0.229 µM (active),0.107 µM (active),1.19 µM (inactive),0.281 µM (active),0.172 µM (active),1.26 µM (inactive),–,1.63 µM (inactive),1.06 µM (active),0.891 µM (active),4.9 µM (inactive),3.38 µM (inactive),0.161 µM (active),1.38 µM (inactive),0.459 µM (active),–
O=C1/C(=C/c2ccc3c(c2)OCO3)SC2C=Nc3ccccc3N12 (configuration not stated),> 100 µM (inactive),93.5 µM (inactive),> 100 µM (inactive),> 100 µM (inactive),> 100 µM (inactive),–,> 100 µM (inactive),> 10 µM (inactive),> 100 µM (inactive),> 100 µM (inactive),–,> 100 µM (inactive),> 100 µM (inactive),> 100 µM (inactive),–,28.9 µM (inactive),> 100 µM (inactive),–,> 100 µM (inactive),> 100 µM (inactive)
N#Cc1c(-c2ccco2)cc(-c2ccc(N)cc2)[nH]c1=O,–,> 100 µM (inactive),> 100 µM (inactive),> 100 µM (inactive),> 100 µM (inactive),> 100 µM (inactive),> 100 µM (inactive),> 100 µM (inactive),> 100 µM (inactive),> 100 µM (inactive),–,> 100 µM (inactive),–,> 100 µM (inactive),> 100 µM (inactive),> 100 µM (inactive),> 100 µM (inactive),–,> 100 µM (inactive),–
O=C(Nc1ccc(Br)cc1)C(=O)C(C(=O)c1ccccc1F)C1OC(=O)c2ccccc21 (configuration not stated),37.8 µM (inactive),14 µM (inactive),81.1 µM (inactive),16.9 µM (inactive),17.7 µM (inactive),23.7 µM (inactive),31.8 µM (inactive),18.4 µM (inactive),25.3 µM (inactive),15.3 µM (inactive),–,48 µM (inactive),21.8 µM (inactive),27.2 µM (inactive),27.5 µM (inactive),19.7 µM (inactive),31.9 µM (inactive),–,23.1 µM (inactive),–
COc1ccc(C(=O)NCCC2=CCCCC2)cc1,> 100 µM (inactive),> 100 µM (inactive),> 100 µM (inactive),–,> 100 µM (inactive),–,> 100 µM (inactive),> 100 µM (inactive),–,> 100 µM (inactive),–,> 100 µM (inactive),> 100 µM (inactive),> 100 µM (inactive),–,> 100 µM (inactive),> 100 µM (inactive),–,–,> 100 µM (inactive)
O=C(c1nc2ccc(Cl)cc2[nH]c1=O)C(O)c1ccco1 (configuration not stated),53 µM (inactive),4.91 µM (inactive),> 100 µM (inactive),44 µM (inactive),46.7 µM (inactive),6.14 µM (inactive),–,36.6 µM (inactive),8.57 µM (inactive),> 100 µM (inactive),–,> 100 µM (inactive),87.1 µM (inactive),25.5 µM (inactive),> 100 µM (inactive),> 100 µM (inactive),> 100 µM (inactive),–,42.9 µM (inactive),–
O=C(O)CSc1nnc(-c2ccco2)[nH]1,> 100 µM (inactive),–,> 100 µM (inactive),> 100 µM (inactive),> 100 µM (inactive),> 100 µM (inactive),> 100 µM (inactive),> 100 µM (inactive),> 100 µM (inactive),> 100 µM (inactive),–,> 100 µM (inactive),> 100 µM (inactive),> 100 µM (inactive),> 100 µM (inactive),95.5 µM (inactive),> 100 µM (inactive),–,> 100 µM (inactive),> 100 µM (inactive)
Cc1ccc(-c2cc(-c3ccco3)c(C#N)c(O)n2)cc1,–,–,> 100 µM (inactive),> 100 µM (inactive),> 100 µM (inactive),> 100 µM (inactive),> 100 µM (inactive),> 100 µM (inactive),> 100 µM (inactive),> 100 µM (inactive),–,> 100 µM (inactive),–,> 100 µM (inactive),29.4 µM (inactive),18.7 µM (inactive),> 100 µM (inactive),–,> 100 µM (inactive),–
S=C1OC2C3C4CC5C3C(O1)C1C5C4C21 (configuration not stated),> 100 µM (inactive),45.6 µM (inactive),> 100 µM (inactive),> 100 µM (inactive),45.2 µM (inactive),> 100 µM (inactive),> 100 µM (inactive),74 µM (inactive),> 100 µM (inactive),> 100 µM (inactive),–,> 100 µM (inactive),–,> 100 µM (inactive),> 100 µM (inactive),> 100 µM (inactive),> 100 µM (inactive),–,> 100 µM (inactive),–
